These results are taken from patent US20250064090A1 (priority 2020, published 2025).

The test system of experiment [1] is HT99 or J53R cells. Type of experiment: cell-based, E. coli.
The subject of experiment [2] is E. coli strains HT-99 (donor) and J53R (receptor). Type of experiment: cell-based, Escherichia coli. To be noted: for Class of ingredient by conjugation frequency compared to control (in words): single ingredient, 100 mg/L, from Table 1.

Each structure is given as a SMILES string. Like-named read-outs stand apart in the source and are kept apart here.

Regarding `CCCCCCCC/C=C\CCCCCCCC(=O)O` [Oleic acid, oleic acid], in experiment [1], the “expression of the yqfA gene (hemolysin III family protein)” value is “reduced”, the “fatty acid biosynthesis (fabB) gene expression upon treatment with oleic acid” value is “inhibition” and the “fatty acid degradation (fadB) gene expression upon treatment with oleic acid” value is “inducing”. The Conjugation frequency in experiment [2] (3 hours, 37° C.) is recorded as 0.00011. In experiment [2], the “Class of ingredient by conjugation frequency compared to control (in words)” value (“Class … compared to control (in words)” below) is “conjugation inhibitors”.
The compound `O=C(OC[C@H]1O[C@@H](OC(=O)c2cc(O)c(O)c(OC(=O)c3cc(O)c(O)c(O)c3)c2)[C@H](OC(=O)c2cc(O)c(O)c(OC(=O)c3cc(O)c(O)c(O)c3)c2)[C@@H](OC(=O)c2cc(O)c(O)c(OC(=O)c3cc(O)c(O)c(O)c3)c2)[C@@H]1OC(=O)c1cc(O)c(O)c(OC(=O)c2cc(O)c(O)c(O)c2)c1)c1cc(O)c(O)c(OC(=O)c2cc(O)c(O)c(O)c2)c1` [Tannic acid, tannic acid] yielded a Conjugation frequency in experiment [2] (3 hours, 37° C.) of 0.00007. For the same compound, the “Class … compared to control (in words)” value in experiment [2] was “conjugation inhibitors”.
The corresponding values for `Cc1ccc(C(C)C)c(O)c1` [Thymol, thymol] are 0.0019 and “conjugation enhancers”.
Regarding `Cc1ccc(C(C)C)cc1O` [Carvacrol, carvacrol], in experiment [2], the Conjugation frequency amounted to 0.0052 and the “Class … compared to control (in words)” value is recorded as “conjugation enhancers”. The same compound registered a Conjugation frequency in experiment [2] (3 hours, 37° C.) of 0.0044.
For the compound `O=CC=Cc1ccccc1` [Cinnamaldehyde, cinnamaldehyde], in experiment [2], the Conjugation frequency was determined as 0.0014 and the “Class … compared to control (in words)” value is on record as “conjugation inert ingredient”. The compound further had a Conjugation frequency in experiment [2] (3 hours, 37° C.) of 0.0011. Further, the “Conjugation compared to control (in words)” value in experiment [2] (result in words) is “not affected”.
For the compound `C=CC(C)(O)CCC=C(C)C` (stereo not drawn) [Linalool, linalool], the Conjugation frequency in experiment [2] (3 hours, 37° C.) is listed as 0.00085. In addition, the “Class … compared to control (in words)” value in experiment [2] is given as “conjugation inhibitors”.
In the case of `CC(C)=CCCC(C)=CC=O` [Citral, citral], the Conjugation frequency in experiment [2] (3 hours, 37° C.) amounted to 0.0023; in experiment [2] (citral alone or mixed with conjugation inhibitors (100 mg of each per mL stock, 10 μL in 10 mL), control 0.0014), 0.0028. Moreover, the “Class … compared to control (in words)” value in experiment [2] is “conjugation enhancers”.
